This is an account of results in patent US20260176249A1, “PROTEIN KINASE INHIBITOR, PREPARATION METHOD THEREFOR, AND APPLICATION THEREOF” (SHANDONG LUYE PHARMACEUTICAL CO., LTD., priority 2021, published 2026).

The nature of data set [1]: Metabolic stability in human liver microsomes. Type of data set: in vitro ADME. The conditions noted are these: for CLint scaled at 1 µM / half-life at 1 µM / microsomal CLint at 1 µM: human; for CLint scaled at 1 µM / half-life at 1 µM: pH 7.4; for microsomal CLint at 1 µM: pH 7.4, read-out: CLint(mic). An outline of the steps: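 Compounds incubated at 37 °C with mouse, rat or human liver microsomes in 100 mM phosphate buffer pH 7.4, started with NADPH/MgCl2 and sampled at 0–60 min. Parent remaining quantified by LC-MS. T1/2 and CLint(mic) derived from depletion, scaled to CLint using 45 mg protein/g liver and species liver/body weight ratios.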

For the next data set, the system named is Caco-2 cells. Description: Permeability and efflux transporter substrate evaluation in Caco-2 cells. The class given is in vitro ADME. The arrangement: Papp A→B at 120 min / Papp B→A at 120 min / efflux ratio at 120 min / Papp at 120 min: dose or concentration left out as unconfirmed. The following applies: Caco-2. An outline of the steps: (§1)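 Bidirectional (A-B, B-A) transport across 21-28-day Caco-2 monolayers in HBSS/10 mM HEPES pH 7.40, test substance at […], 7200 s incubation. LC-MS/MS quantitation; Papp, efflux ratio and recovery calculated, monolayer integrity checked by Lucifer Yellow rejection.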

Assay in data set [2]: as above
The following applies: human; for efflux ratio at 120 min / Papp at 120 min: Caco-2, pH 7.4; for Papp at 120 min: read-out: Classification Permeability; for Papp A→B at 120 min / Papp B→A at 120 min: pH 7.4, pH 7.40; for Papp A→B at 120 min: Caco-2, apical to basolateral; for Papp B→A at 120 min: Caco-2, basolateral to apical. The class given is in vitro ADME. The arrangement: Papp A→B at 120 min / Papp B→A at 120 min / efflux ratio at 120 min / Papp at 120 min: dose or concentration left out as unconfirmed. Summed up: as §1
A general note: Caco-2 cells form a polarised layer with tight junctions and transporters.

The next data set has as its system HCT116 cells. The data set can be described thus: In vivo pharmacodynamic study of compound 18 in HCT116 tumor-bearing mice. The arrangement: species or system Balb/C Nude mice. The conditions noted are these: 60 mg/kg once a day by gavage. Here is the method: a. Establishment of tumor-bearing mouse model: HCT116 cells in the logarithmic growth phase were taken and cultured, the cells were collected and counted, and then subcutaneously inoculated into Balb/C Nude mice at 1×10^6/mouse. The tumor volume and body weight of the mice were measured regularly. 7 days after inoculation, mice with tumor volume of 150 mm3 were randomly divided into groups and treated with corresponding drugs.
3. Data processing: All data were organized in EXCEL, and One-way ANOVA analysis and drawing were performed using GraphPad Prism 8.0 software. Statistical significance was achieved when p<0.05.
1. Experiment materials: Same as Test example 5.
a. Establishment of tumor-bearing mouse model: Same as Test example 5.
b. […] The administration was performed once a day by gavage for 7 consecutive days, and the tumor volume and body weight of the mice were measured regularly.
3. Data processing: Same as Test example 5.

As a reminder, the CLint scaled is the rate of metabolic loss divided by the concentration. What is called half-life is the time needed for the level to fall by half in the phase considered. A word on the efflux ratio: it is a quotient of directional permeabilities that is used to spot active efflux. In general, Papp A→B refers to the apparent permeability from the apical to the basolateral side of a cell layer. As usually defined, the Papp B→A is how fast a substance crosses the layer from the basolateral side.

Where only a bound is given, the exact number is not on record here.

For the compound `CN1CCN(c2ccc(OC(F)(F)F)c(Nc3ncc4c(n3)-c3c(c(C(=O)NN)nn3CCO)CC4)c2)CC1` [Compound 13], in data set [1], the “60 min remaining amount” value came out at 58.5%, the Clearance rate result is on record as “Medium”, the CLint scaled at 1 µM was found to be 17.5 mL/min/kg and the half-life at 1 µM amounted to 71.4 min. Also, in data set [1], the microsomal CLint at 1 µM amounted to 19.4 µL/min/mg. In the data set on Caco-2 cells, the “Classification Efflux transporter substrate” value is “Likely (ERa ≥ 2.00)”. For the same compound, in data set [2], the efflux ratio at 120 min is over 28.6, the Papp at 120 min was under 0.5 ×10⁻⁶ cm/s, the apical-to-basolateral permeability (Papp A→B) at 120 min is under 0.48 ×10⁻⁶ cm/s and the apparent permeability from basolateral to apical (Papp B→A) at 120 min came out at 13.7 ×10⁻⁶ cm/s.

`Cn1nc(C(N)=O)c2ccc3cnc(Nc4cc(N5CCN(CCO)CC5)ccc4OC(F)(F)F)nc3c21` [Compound 16]: in data set [1], the “60 min remaining amount” value is listed as 23.3%, the Clearance rate entry was “Medium”, the intrinsic metabolic clearance (CLint scaled) at 1 µM was found to be 44.1 mL/min/kg and the half-life at 1 µM was found to be 28.3 min. The microsomal CLint at 1 µM in data set [1] was 49 µL/min/mg. The “Classification Efflux transporter substrate” value with Caco-2 cells was “Likely (ERa ≥ 2.00)”. In data set [2], the efflux ratio at 120 min was determined as 7.27, the Papp at 120 min is 0.5 to 2.5 ×10⁻⁶ cm/s, the Papp A→B at 120 min was 0.917 ×10⁻⁶ cm/s and the Papp B→A at 120 min worked out at 6.66 ×10⁻⁶ cm/s.

As for `CN1CCN(c2ccc(OC(F)(F)F)c(Nc3ncc4c(n3)-c3c(c(C(N)=O)cn3CCO)CC4)c2)CC1` [Compound 2], in data set [1], the “60 min remaining amount” value was 49.9%, the Clearance rate entry was “Medium”, the intrinsic clearance (CLint scaled) at 1 µM was determined as 22.7 mL/min/kg and the half-life at 1 µM was 55 min. Further, in data set [1], the microsomal CLint at 1 µM is 25.2 µL/min/mg. Further, the “Classification Efflux transporter substrate” value with Caco-2 cells was “Likely (ERa ≥ 2.00)”. In data set [2], the efflux ratio at 120 min is over 54.4, the Papp at 120 min is under 0.5 ×10⁻⁶ cm/s, the Papp A→B at 120 min is under 0.48 ×10⁻⁶ cm/s and the Papp B→A at 120 min was 26.1 ×10⁻⁶ cm/s.

In the case of `CN1CCN(c2ccc(OCC(F)(F)F)c(Nc3ncc4c(n3)-c3c(c(C(N)=O)nn3CCO)CC4)c2)CC1` [Compound 24], in data set [1], the “60 min remaining amount” value was 40.1%, the Clearance rate entry is reported as “Medium”, the intrinsic metabolic clearance (CLint scaled) at 1 µM was determined as 28.6 mL/min/kg and the half-life at 1 µM was 43.6 min. For the same compound, the microsomal CLint at 1 µM in data set [1] is 31.8 µL/min/mg. The “Classification Efflux transporter substrate” value in the data set with Caco-2 cells is “Likely (ERa ≥ 2.00)”. In data set [2], the efflux ratio at 120 min is 279, the Papp at 120 min was under 0.5 ×10⁻⁶ cm/s, the Papp A→B at 120 min was 0.106 ×10⁻⁶ cm/s and the basolateral-to-apical permeability (Papp B→A) at 120 min came out at 29.5 ×10⁻⁶ cm/s.

Consider `CN1CCN(c2ccc(OC(F)(F)F)c(Nc3ncc4c(n3)-c3c(c(C(N)=O)nn3CCO)CC4)c2)CC1` [Onvansertib, reference compound], for which, in data set [1], the “60 min remaining amount” value came to 64.8%, the Clearance rate result was “Medium”, the CLint scaled at 1 µM came to 15.3 mL/min/kg and the half-life at 1 µM was determined as 81.5 min. For the same compound, the microsomal CLint at 1 µM in data set [1] is 17 µL/min/mg. The “body weight decrease compared to before administration” value in the data set with HCT116 cells (5 days) turned out to be 8.4%. Further, the “body weight decrease compared to before administration” value with HCT116 cells (7 days) came out at 19.5%. In the data set on HCT116 cells (7 days, vs control group), the tumor inhibition rate was determined as 62.7%. Moreover, the “Classification Efflux transporter substrate” value in the data set on Caco-2 cells is on record as “Likely (ERa ≥ 2.00)”. Further, in data set [2], the Papp at 120 min was under 0.5 ×10⁻⁶ cm/s, the Papp A→B at 120 min amounted to 0.299 ×10⁻⁶ cm/s and the Papp B→A at 120 min amounted to 43.6 ×10⁻⁶ cm/s.

Turning to `CN1CCN(c2ccc(OC(F)(F)F)c(Nc3ncc4c(n3)-c3c(c(C(N)=O)nn3CCC#N)CC4)c2)CC1` [Compound 4], in data set [1], the “60 min remaining amount” value is 23.7%, the Clearance rate result is “Medium”, the CLint scaled at 1 µM stood at 44.1 mL/min/kg and the half-life at 1 µM amounted to 28.3 min. Further, the microsomal CLint at 1 µM in data set [1] came to 49 µL/min/mg. The “Classification Efflux transporter substrate” value in the data set on Caco-2 cells was “Likely (ERa ≥ 2.00)”. In data set [2], the efflux ratio at 120 min was 22.1, the Papp at 120 min lay within 0.5 to 2.5 ×10⁻⁶ cm/s, the Papp A→B at 120 min is 1.16 ×10⁻⁶ cm/s and the basolateral-to-apical permeability (Papp B→A) at 120 min came out at 25.5 ×10⁻⁶ cm/s.

In the case of `Cn1nc(C(N)=O)c2c1-c1nc(Nc3cc(N4CCN(CCO)CC4)ccc3OC(F)(F)F)ncc1CC2` [Compound 20], in data set [1], the “60 min remaining amount” value is listed as 26.5%, the Clearance rate entry is “Medium”, the CLint scaled at 1 µM was determined as 39.1 mL/min/kg and the half-life at 1 µM came to 31.9 min. Besides, the microsomal CLint at 1 µM in data set [1] is 43.4 µL/min/mg. In addition, the “Classification Efflux transporter substrate” value in the data set on Caco-2 cells is recorded as “Likely (ERa ≥ 2.00)”. Besides, in data set [2], the efflux ratio at 120 min was 10.4, the Papp at 120 min fell in the range of 0.5 to 2.5 ×10⁻⁶ cm/s, the apical-to-basolateral permeability (Papp A→B) at 120 min was 1.3 ×10⁻⁶ cm/s and the Papp B→A at 120 min is 13.4 ×10⁻⁶ cm/s.
